Test system: participants with SSc-RP
Assay: Scleroderma Health Assessment Questionnaire (SHAQ): disability indices and visual analog scales
Format: in vivo, human
Source text: The standard, validated, patient reported outcome measures tool for SSc patients, the Scleroderma Health Assessment Questionnaire (SHAQ), will be used to assess the participant qualify of life. Details are attached in the Appendix. The participant quality of life will be scored, and a disability index calculated for each questionnaire completed by the patient at Screening and each in-clinic visit. The absolute change in participant quality of life from baseline to the end of each dosing period will be calculated similar to frequency data as before.
The SHAQ includes a Raynaud's VAS, which will be reported at screening and each in-clinic visit. The absolute change in Raynaud-VAS, assessed by the participants response to the SHAQ question ‘In the past 7 days, how much have your Raynaud's interfered with your daily activities?’ at baseline and the end of each dosing period will be calculated similar to frequency data as before.
The SHAQ is used to calculate a Disability Index to assess the participant qualify of life. The eight categories assessed by the Disability Index are 1) dressing and grooming, 2) arising, 3) eating, 4) walking, 5) hygiene, 6) reach, 7) grip, and 8) common daily activities. For each of these categories, patients report the amount of difficulty they have in performing two or three specific activities.
There are four possible responses for the Disability Index questions: • Without any difficulty=0 • With some difficulty=1 • With much difficulty=2 • Unable to do=3. • The highest score reported by the patient for any component question of the eight categories determines the score for that category. • If a component question is left blank or the response is too ambiguous to assign a score, then the score for that category is determined by the remaining completed question(s). • If all component questions are blank or if more than one answer is given, then follow up with the respondent is required. • If the respondent's mark is between the response columns, then move it to the closest one. If it's directly between the two, move it to the higher one.
Each of the disability items on the SHAQ has a companion aids/devices variable that is used to record what type(s) of assistance, if any, the participant uses for his/her usual activities. These variables (see below) are coded as follows: • 0=No assistance is needed. • 1=A special device is used by the patient in his/her usual activities. • 2=The patient usually needs help from another person. • 3=The patient usually needs BOTH a special device AND help from another person.
The scoring variables and scoring rules permit the computation of two disability indices, the Standard Disability Index and the Alternative Disability Index.
This question results in a new set of category scores that are computed by adjusting the score for each category, if necessary, based on the patient's use of an aid or device or assistance for that category. If either devices and/or help from another person are checked for a category, the score is set to “2”, unless the score is already “3” (i.e., scores of “0” or “1” are increased to “2”). For example, if the highest score for the dressing category is “1”, and the patient says they use a device for dressing, the computed category score would be “2”. The sum of the computed categories scores is then calculated and divided by the number of categories answered. This gives a score in the 0 to 3 range.
The aid and device variables are not used to calculate the alternative disability index; it is calculated by adding the scores for each of the categories and dividing by the number of categories answered. This gives a score in the 0 to 3 range.
The standard, validated, patient reported outcome measures tool for SSc patients, the SHAQ, was collected at the time points specified in the study schedules (FIG. 2 and FIGS. 4A and 4B) to assess the participant's quality of life. The SHAQ included a Raynaud's VAS that will also be reported separately.

[1] = Any Cilnidipine (N = 14), Day 12, Modified ITT, SSc patients, Part A
[2] = Any Cilnidipine (N = 14), Day 12, Modified ITT, SSc patients, Part A, Subject 01-110 Day 12 score excluded
[3] = Any Cilnidipine (N = 17), Day 12, PP Population Part A, SSc patients
[4] = Any Cilnidipine (N = 17), PP Population Part A, SSc patients
[5] = Baseline, Cilnidipine 10 mg (N = 4), Patients with Diagnosis of SSc, PP Population Part A

SMILES: COCCOC(=O)C1=C(C)NC(C)=C(C(=O)OC/C=C/c2ccccc2)C1c1cccc([N+](=O)[O-])c1 (stereo not shown) [Cilnidipine, cilnidipine]
- SHAQ VAS- Breathing problems Change (20 mg): −0.83
- SHAQ VAS- Raynaud's Change (20 mg): −1.27
- SHAQ VAS- overall disease severity Change (20 mg): −1.63
- SHAQ VAS-Pain (20 mg): −1.1
- SHAQ Alternative Disability Index: Change from Baseline, Mean [1]: −0.016
- SHAQ Alternative Disability Index: Change from Baseline, Median [1]: −0.031
- SHAQ Alternative Disability Index: In-Clinic Visit (Day 12), Mean [1]: 0.430
- SHAQ Alternative Disability Index: In-Clinic Visit (Day 12), Median [1]: 0.250
- SHAQ Alternative Disability Index: Percent Change from Baseline, Mean [1]: 17.01%
- SHAQ Alternative Disability Index: Percent Change from Baseline, Median [1]: −11.11%
- SHAQ Standard Disability Index: Change from Baseline, Mean [1]: −0.050
- SHAQ Standard Disability Index: Change from Baseline, Median [1]: 0.000
- SHAQ Standard Disability Index: In-Clinic Visit (Day 12), Mean [1]: 0.521
- SHAQ Standard Disability Index: In-Clinic Visit (Day 12), Median [1]: 0.250
- SHAQ Standard Disability Index: Percent Change from Baseline, Mean [1]: 2.96%
- SHAQ Standard Disability Index: Percent Change from Baseline, Median [1]: 0.00%
- SHAQ Visual Analogue Scale - Finger Ulcers: Change from Baseline, Mean [1]: −0.623
- SHAQ Visual Analogue Scale - Finger Ulcers: Change from Baseline, Median [1]: −0.100
- SHAQ Visual Analogue Scale - Finger Ulcers: In-Clinic Visit (Day 12), Mean [1]: 0.900
- SHAQ Visual Analogue Scale - Finger Ulcers: In-Clinic Visit (Day 12), Median [1]: 0.200
- SHAQ Visual Analogue Scale - Finger Ulcers: Percent Change from Baseline, Mean [1]: −33.91%
- SHAQ Visual Analogue Scale - Finger Ulcers: Percent Change from Baseline, Median [1]: −36.11%
- SHAQ Visual Analogue Scale - Intestinal Problems: Change from Baseline, Mean [1]: −0.404
- SHAQ Visual Analogue Scale - Intestinal Problems: Change from Baseline, Median [1]: 0.000
- SHAQ Visual Analogue Scale - Intestinal Problems: In-Clinic Visit (Day 12), Mean [1]: 1.225
- SHAQ Visual Analogue Scale - Intestinal Problems: In-Clinic Visit (Day 12), Median [1]: 0.650
- SHAQ Visual Analogue Scale - Intestinal Problems: Percent Change from Baseline, Mean [1]: 0.28%
- SHAQ Visual Analogue Scale - Intestinal Problems: Percent Change from Baseline, Median [1]: −10.00%
- SHAQ Visual Analogue Scale - Overall Disease Severity: Change from Baseline, Mean [1]: −0.904
- SHAQ Visual Analogue Scale - Overall Disease Severity: Change from Baseline, Median [1]: −1.300
- SHAQ Visual Analogue Scale - Overall Disease Severity: In-Clinic Visit (Day 12), Mean [1]: 2.146
- SHAQ Visual Analogue Scale - Overall Disease Severity: In-Clinic Visit (Day 12), Median [1]: 1.300
- SHAQ Visual Analogue Scale - Overall Disease Severity: Percent Change from Baseline, Mean [1]: −30.92%
- SHAQ Visual Analogue Scale - Overall Disease Severity: Percent Change from Baseline, Median [1]: −41.67%
- SHAQ Visual Analogue Scale - Pain: Change from Baseline, Mean [1]: −0.492
- SHAQ Visual Analogue Scale - Pain: Change from Baseline, Median [1]: −0.500
- SHAQ Visual Analogue Scale - Pain: In-Clinic Visit (Day 12), Mean [1]: 2.236
- SHAQ Visual Analogue Scale - Pain: In-Clinic Visit (Day 12), Median [1]: 2.150
- SHAQ Visual Analogue Scale - Pain: Percent Change from Baseline, Mean [1]: −23.84%
- SHAQ Visual Analogue Scale - Pain: Percent Change from Baseline, Median [1]: −21.87%
- SHAQ Visual Analogue Scale - Raynaud's: Change from Baseline, Mean [1]: −0.538
- SHAQ Visual Analogue Scale - Raynaud's: Change from Baseline, Median [1]: −0.300
- SHAQ Visual Analogue Scale - Raynaud's: In-Clinic Visit (Day 12), Mean [1]: 1.798
- SHAQ Visual Analogue Scale - Raynaud's: In-Clinic Visit (Day 12), Median [1]: 1.250
- SHAQ Visual Analogue Scale - Raynaud's: Percent Change from Baseline, Mean [1]: −18.26%
- SHAQ Visual Analogue Scale - Raynaud's: Percent Change from Baseline, Median [1]: −33.33%
- SHAQ Visual Analogue Scale - Breathing Problems: Change from Baseline, Mean [2]: −0.015
- SHAQ Visual Analogue Scale - Breathing Problems: Change from Baseline, Median [2]: 0.000
- SHAQ Visual Analogue Scale - Breathing Problems: In-Clinic Visit (Day 12), Mean [2]: 1.515
- SHAQ Visual Analogue Scale - Breathing Problems: In-Clinic Visit (Day 12), Median [2]: 0.400
- SHAQ Visual Analogue Scale - Breathing Problems: Percent Change from Baseline, Mean [2]: 51.98%
- SHAQ Visual Analogue Scale - Breathing Problems: Percent Change from Baseline, Median [2]: −21.33%
- SHAQ Standard Disability Index, Change from Baseline, Mean [3]: −0.041
- SHAQ Standard Disability Index, Change from Baseline, Median [3]: 0.000
- SHAQ Standard Disability Index, Percent Change from Baseline, Mean [3]: 3.27%
- SHAQ Standard Disability Index, Percent Change from Baseline, Median [3]: 0.00%
- SHAQ Standard Disability Index, In-Clinic Visit (Day 12), Mean [4]: 0.539
- SHAQ Standard Disability Index, In-Clinic Visit (Day 12), Median [4]: 0.250
- SHAQ Alternative Disability Index, Mean [5]: 0.500
- SHAQ Alternative Disability Index, Median [5]: 0.438
- SHAQ Standard Disability Index, Mean [5]: 0.656

— patent US20240358693A1, “METHODS OF TREATING PAIN” (Aisa Pharma, Inc., priority 2023, published 2024)
